Measured values taken from ChEMBL document CHEMBL5727535, “NK-3 receptor selective antagonist compounds, pharmaceutical composition and methods for use in NK-3 receptors mediated disorders” (2020).

Each molecule was assayed against T1, Neuromedin-K receptor (Homo sapiens, UniProt P29371) (assay: 3H-SB222200 Binding Competition Assay with Human NK-3 Receptor: The ability of the compounds of the invention to inhibit the binding of the NK-3 receptor selective antagonist SB222200 was assessed by an in vitro radioligand binding assay. Membranes were prepared from Chinese hamster ovary recombinant cells which express the human NK3 receptor. The membranes were incubated with 5 nM 3H-SB222200_(ARC) in a HEPES 25 mM/NaCl 0.1M/CaCl2 1 mM/MgCl2 5 Mm/BSA 0.5%/Saponin 10 μg/ml buffer at pH 7.4 and various concentrations of the compounds of the invention. The amount of tritiated SB222200 bound to the receptor was determined after filtration by the quantification of membrane associated radioactivity using the TopCount-NXT reader (Packard). Competition curves were obtained for compounds of the invention and the concentrations of compounds which displaced 50% of bound radioligand (IC50) were determined and then apparent inhibition constant Ki values were calculated by the following equation: Ki=IC50/(1+[L]/KD) where [L] is the concentration of free radioligand and KD is its dissociation constant at the receptor, derived from saturation binding experiments (Cheng and Prusoff, 1973).).
T1 sequence (P29371 whole entry): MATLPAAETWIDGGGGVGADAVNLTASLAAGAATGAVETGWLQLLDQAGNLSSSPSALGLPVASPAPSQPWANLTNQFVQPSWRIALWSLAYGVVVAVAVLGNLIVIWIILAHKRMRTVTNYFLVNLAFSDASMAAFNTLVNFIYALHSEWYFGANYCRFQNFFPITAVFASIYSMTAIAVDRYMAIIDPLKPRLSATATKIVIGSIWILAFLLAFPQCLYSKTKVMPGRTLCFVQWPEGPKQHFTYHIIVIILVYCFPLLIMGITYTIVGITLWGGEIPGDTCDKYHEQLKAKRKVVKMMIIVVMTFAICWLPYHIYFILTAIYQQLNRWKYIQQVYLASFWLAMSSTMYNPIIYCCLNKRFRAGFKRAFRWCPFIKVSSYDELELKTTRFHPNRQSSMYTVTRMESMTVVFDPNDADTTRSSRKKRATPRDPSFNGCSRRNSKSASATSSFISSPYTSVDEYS
`C[C@@H]1c2nnc(-c3csc(-c4ccc(Cl)cc4)n3)n2CCN1C(=O)c1ccc(F)cc1` was tested, and the Ki was under 500 nM.
Molecule `CC1c2nnc(-c3csc(-c4ccccc4Cl)n3)n2CCN1C(=O)c1ccc(F)cc1` (stereo not drawn) has a Ki of under 500 nM.
Molecule `O=C(c1ccc(F)cc1)N1CCn2c(nnc2-c2csc(-c3ccc(Cl)cc3)n2)C1` has a Ki of under 500 nM.
Molecule `CC1c2nnc(-c3csc(-c4ccc(F)cc4)n3)n2CCN1C(=O)c1ccc(Cl)c(F)c1` (stereo not drawn) has a Ki of under 500 nM.
`O=C(c1ccc(-c2cccs2)cc1)N1CCn2c(nnc2-c2csc(-c3ccc(Br)cc3)n2)C1` gave a Ki of under 500 nM.
`Cn1nc(C(=O)N2CCn3c(nnc3-c3ccccn3)C2)cc1-c1ccc(Cl)cc1` was tested, and the Ki was over 5000 nM.
`O=C(c1ccc(-c2cccs2)cc1)N1CCn2c(nnc2-c2csc(Cc3ccc(Cl)cc3)n2)C1` gave a Ki of under 500 nM.
With `CC1c2nnc(-c3csc(-c4ccc(F)cc4)n3)n2CCN1C(=O)c1ccc(F)c(Cl)c1` (stereo not drawn) the Ki was under 500 nM.
With `O=C(c1ccc(F)cc1)N1CCn2c(nnc2-c2csc(-c3cccc(Cl)c3Cl)n2)C1` the Ki was under 500 nM.
`O=C(c1ccc(F)cc1)N1CCn2c(nnc2-c2csc(-c3ccc(Br)cc3)n2)C1` showed a Ki of under 500 nM.
Molecule `O=C(c1ccc(F)cc1)N1CCn2c(nnc2-c2csc(-c3cc(Cl)cc(Cl)c3)n2)C1` has a Ki of under 500 nM.
Work on `O=C(c1ccc(F)cc1)N1CCn2c(nnc2-c2csc(-c3ccc(Cl)cc3Cl)n2)C1` yielded a Ki of under 500 nM.
For `CC1c2nnc(-c3csc(-c4ccc(F)cc4)n3)n2CCN1C(=O)c1ccc(Cl)c(Cl)c1` (stereo not drawn), the Ki was under 500 nM.
Molecule `O=C(c1ccc(F)cc1)N1CCn2c(nnc2-c2ccc(Cl)cn2)C1` has a Ki of under 500 nM.
With `O=C(c1ccc(-c2ccccc2)cc1)N1CCn2c(nnc2-c2csc(-c3ccccc3Cl)n2)C1` the Ki was under 500 nM.
With `O=C(c1ccc(F)cc1)N1CCn2c(nnc2-c2csc(-c3ccccc3Cl)n2)C1` the Ki was under 500 nM.
`O=C(c1ccc(F)cc1)N1CCn2c(nnc2-c2csc(-c3cccc(Cl)c3)n2)C1` showed a Ki of under 500 nM.
`O=C(c1ccc(-c2cccs2)cc1)N1CCn2c(nnc2-c2csc(-c3ccccc3Cl)n2)C1` gave a Ki of under 500 nM.
